Laboratory results from patent US20130047297A1, “POLYNUCLEOTIDE MOLECULES FOR GENE REGULATION IN PLANTS” (priority 2010, published 2013).

Legend:
[1] = test system: glyphosate-resistant Palmer amaranth plants; assay: Salts, EDTA, glycerin as additives to polynucleotide spray solutions (Example 35, Tables 26-28); assay type: in vivo; settings: for enhancing the efficacy of the polynucleotides and potentiating the herbicidal activity of glyphosate: additive in the spray solution
[2] = test system: Nicotiana benthamiana phytoene desaturase; assay: Topical oligonucleotides/polynucleotides on tobacco, PDS bleaching and chlorophyll (Example 10); assay type: in vivo; settings: for Chlorophyll (day 12) / Chlorophyll (day 7): 6 spots on the apical area; for Chlorophyll (day 12): buffer control 38.4; for Chlorophyll (day 7): lower values indicate suppression of phytoene desaturase, buffer control 31.2; for Bleaching (day 5): 25 microM each; for systematically regulating (suppressing) the target gene phytoene desaturase: Table 4 treatments; for bleaching of apical leaves (FIG. 15): another assay; for bleaching of apical leaves (FIG. 14): topical treatment
Experimental: The following procedure was used for all assays described in this example. Four-week old Nicotiana benthamiana plants were used in all assays. Plants were treated with 0.1% Silwet L-77 solution freshly made with ddH2O. Two fully expanded leaves per plant (one cotyledon, one true leaf) were dipped into the Silwet L-77 solution for a few seconds, and allowed to dry for 15-30 minutes before application of the polynucleotide composition. Final concentration for each oligonucleotide or polynucleotide was 25 microM (in 0.01% Silwet L-77, 5 mM sodium phosphate buffer, pH 6.8) unless otherwise stated. 20 microliters of the solution was applied to the top surface of each of the two pre-treated leaves to provide a total of 40 microliters (1 nmol oligonucleotide or polynucleotide) for each plant. Leaf bleaching was observed 3 days post treatment.
FIG. 13 illustrates phenotypes observed at day 12 after treatment in another assay of the effect from twelve combinations of polynucleotides or oligonucleotides (see Table 4). Table 4 also lists observations of visible bleaching of the plants at day 5 after treatment and the results of chlorophyll measurements taken at days 7 and 12 after treatment. Chlorophyll measurements are an indication of suppression of the target gene phytoene desaturase, and measurements were taken at 6 spots on the apical area, focussing on visibly bleached leaves or (in plants without visible bleaching) on leaves in equivalent locations on the plants; lower chlorophyll measurement values indicate suppression of phytoene desaturase.

[3] = Table 26: additive to 1% Silwet L-77 spray solution of polynucleotides (RNA), glyphosate
[4] = 2% salt as additive to 1% Silwet L-77 spray solution of topically applied polynucleotides (RNA), glyphosate

O=C(O)CN(CCN(CC(=O)O)CC(=O)O)CC(=O)O [EDTA, ethylenediaminetetraacetic acid]
Palmer control (%) ([1]; Table 26: additive (2% ammonium sulfate; 0.004% EDTA) to 1% Silwet L-77 spray solution of polynucleotides (RNA), glyphosate): 45% | Palmer height (cm) [1, 3]: 1.0 cm | enhancing the efficacy of the polynucleotides and potentiating the herbicidal activity of glyphosate [1]: act similarly to 2% ammonium sulfate

OCC(O)CO [Glycerin, glycerin]
enhancing the efficacy of the polynucleotides and potentiating the herbicidal activity of glyphosate [1]: enhance the efficacy of the polynucleotides

Cl.N [ammonium chloride]
Palmer control (%) [1, 4]: 52% | Palmer height (cm) [1, 4]: 10.3 cm | enhancing the efficacy of the polynucleotides and potentiating the herbicidal activity of glyphosate [1]: act similarly to ammonium sulfate

N.N.O=S(=O)(O)O [ammonium sulfate]
Palmer control (%) [1, 4]: 54% | Palmer height (cm) [1, 4]: 9.3 cm | Palmer height (cm) [1, 3]: 1.8 cm | Palmer control (%) ([1]; in vivo): 43%

[Cl-].[Na+] [sodium chloride]
Palmer control (%) [1, 4]: 15% | Palmer height (cm) [1, 4]: 15.0 cm

O=S(=O)([O-])[O-].[Na+].[Na+] [sodium sulfate]
Palmer control (%) ([1]; in vivo): 7% | Palmer height (cm) ([1]; in vivo): 17.0 cm

CCCC[P+](CCCC)(CCCC)CCCC.[Br-] [tetrabutylphosphonium bromide]
enhancing the efficacy of the polynucleotides and potentiating the herbicidal activity of glyphosate [1]: act similarly to ammonium sulfate

CC[N+](CC)(CC)CC.[Cl-] [tetraethylammonium chloride]
Palmer control (%) [1, 4]: 27% | Palmer height (cm) [1, 4]: 12.0 cm

C[N+](C)(C)C.[Cl-] [tetramethylammonium chloride]
Palmer control (%) ([1]; in vivo): 19% | Palmer height (cm) ([1]; in vivo): 15.0 cm

Oligo 3 without T7 promoter: SEQ ID NOs 22, 23; PDS anti-sense 22-mer oligonucleotides without a T7 promoter (antisense 1 CATCTCCTTTAATTGTACTGCC; antisense 2 TTTAATTGTACTGCCATTATTC; listed as DNA, chemistry not given here)
Chlorophyll (day 12) [2]: 3.2 | Chlorophyll (day 7) [2]: 11.3 | Bleaching (day 5) ([2]; 40 microliters per plant): strong | systematically regulating (suppressing) the target gene phytoene desaturase [2]: effective | bleaching of apical leaves (FIG. 15) [2]: strong bleaching | bleaching of apical leaves (FIG. 14) [2]: Strong bleaching

Oligos 1 and 2 without T7 promoter: SEQ ID NOs 18, 19 (chain 1 GCAAGAGATGTCCTAGGTGGG; chain 2 ACAGATTTCTTCAGGAGAAACATGG; DNA, backbone not given here)
Chlorophyll (day 12) [2]: 41.1 | Chlorophyll (day 7) [2]: 32.0 | Bleaching (day 5) ([2]; 40 microliters per plant): not yet | systematically regulating (suppressing) the target gene phytoene desaturase [2]: did not suppress

PDS 15-mer anti-sense ssDNA: SEQ ID NO:32 (antisense CATCTCCTTTAATTG; DNA, backbone not given here)
bleaching of apical leaves (FIG. 14) [2]: Little or no visible bleaching

PDS 18-mer anti-sense ssDNA: SEQ ID NO:33 (antisense CATCTCCTTTAATTGTAC; DNA, backbone not given here)
bleaching of apical leaves (FIG. 14) [2]: Little or no visible bleaching

PDS 21-mer sense ssDNA: SEQ ID NO:36 (sense GCAGTACAATTAAAGGAGATG; DNA, backbone not given here)
bleaching of apical leaves (FIG. 15) [2]: Little or no visible bleaching

PDS 33-mer anti-sense ssDNA: SEQ ID NO:35 (antisense CATCTCCTTTAATTGTACTGCCATTATTCAGTA; DNA, backbone not given here)
bleaching of apical leaves (FIG. 14) [2]: Strong bleaching

B1: 200-mer dsRNA polynucleotide: dsRNA corresponding to nucleotides 914-1113 of SEQ ID NO:2 (nucleic acid, listed as Nicotiana benthamiana)
sense: ACAGATTTCTTCAGGAGAAACATGGTTCAAAAATGGCCTTTTTAGATGGTAACCCTCCTGAGAGACTTTGCATGCCGATTGTGGAACATATTGAGTCAAAAGGTGGCCAAGTCAGACTAAACTCACGAATAAAAAAGATCGAGCTGAATGAGGATGGAAGTGTCAAATGTTTTATACTGAATAATGGCAGTACAATTAAA
modifications: complementary strand
Chlorophyll (day 12) [2]: 4.0 | Chlorophyll (day 7) [2]: 11.3 | Bleaching (day 5) ([2]; 40 microliters per plant): strong | bleaching of apical leaves (FIG. 12A) ([2]; 200-mer dsRNA at 0.6 microM, oligonucleotides 25 microM each, 40 microliters per plant): Bleaching of apical leaves was observed | systematically regulating (suppressing) the target gene phytoene desaturase [2]: effective

B2: PDS 700-mer dsRNA: dsRNA designed from nucleotides 421-1120 of SEQ ID NO:2 (nucleic acid, listed as Nicotiana benthamiana)
DNA: GCAAGAGATGTCCTAGGTGGGAAGGTAGCTGCATGGAAAGATGATGATGGAGATTGGTACGAGACTGGGTTGCACATATTCTTTGGGGCTTACCCAAATATGCAGAACCTGTTTGGAGAACTAGGGATTGATGATCGGTTGCAGTGGAAGGAACATTCAATGATATTTGCGATGCCTAACAAGCCAGGGGAGTTCAGCCGCTTTGATTTTCCTGAAGCTCTTCCTGCGCCATTAAATGGAATTTTGGCCATACTAAAGAACAACGAAATGCTTACGTGGCCCGAGAAAGTCAAATTTGCTATTGGACTCTTGCCAGCAATGCTTGGAGGGCAATCTTATGTTGAAGCTCAAGACGGTTTAAGTGTTAAGGACTGGATGAGAAAGCAAGGTGTGCCTGATAGGGTGACAGATGAGGTGTTCATTGCCATGTCAAAGGCACTTAACTTCATAAACCCTGACGAGCTTTCGATGCAGTGCATTTTGATTGCTTTGAACAGATTTCTTCAGGAGAAACATGGTTCAAAAATGGCCTTTTTAGATGGTAACCCTCCTGAGAGACTTTGCATGCCGATTGTGGAACATATTGAGTCAAAAGGTGGCCAAGTCAGACTAAACTCACGAATAAAAAAGATCGAGCTGAATGAGGATGGAAGTGTCAAATGTTTTATACTGAATAATGGCAGTACAATTAAAGGAGATG
modifications: dsRNA of this region
bleaching of apical leaves (FIG. 14) [2]: Strong bleaching

B3: Oligos 1, 2, and 3 w/o T7 promoter and oligos 4, 5, & 6: SEQ ID NOs 18, 19, 22, 23, 24, 25, 26 (nucleic acid)
chain 1: GCAAGAGATGTCCTAGGTGGG
chain 2: ACAGATTTCTTCAGGAGAAACATGG
chain 3: CATCTCCTTTAATTGTACTGCC
chain 4: TTTAATTGTACTGCCATTATTC
chain 5: CACTTCCATCCTCATTCAGCTCGAT
chain 6: ACACCTCATCTGTCACCCTATCAG
chain 7: CAGTCTCGTACCAATCTCCATCAT
modifications: DNA, backbone not given here
Chlorophyll (day 12) [2]: 34.4 | Chlorophyll (day 7) [2]: 30.2 | Bleaching (day 5) ([2]; 40 microliters per plant): not yet
